Laboratory results published in the supplement of paper PMC11451515.

System: SEM cells
Test: cell viability relative to DMSO control; higher = less cytotoxic
Conditions: 48 h
Procedure, shortened: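 Cells were incubated for 48 h at 37°C before CellTiter-Glo One luminescence was read. The cells were NOMO1 or SEM (500 cells/well) or P12-Ichikawa (1000 cells/well) leukemia cells, adapted for at least four passages in each medium and seeded in 1536-well plates (5 μl). Dosing used library compounds in DMSO applied by pin over 11 threefold points, 47 μM to 0.79 nM. Viability is the per-plate percentage of DMSO wells, with cell-free wells as background.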

[1] = HPLM + 10% dialyzed FBS, 0.000781 µM
[2] = HPLM + 10% dialyzed FBS, 0.00234 µM
[3] = HPLM + 10% dialyzed FBS, 0.00702 µM
[4] = HPLM + 10% dialyzed FBS, 0.0211 µM
[5] = HPLM + 10% dialyzed FBS, 0.0632 µM
[6] = HPLM + 10% dialyzed FBS, 0.19 µM
[7] = HPLM + 10% dialyzed FBS, 0.569 µM
[8] = HPLM + 10% dialyzed FBS, 1.71 µM
[9] = HPLM + 10% dialyzed FBS, 5.12 µM
[10] = HPLM + 10% dialyzed FBS, 15.4 µM
[11] = HPLM + 10% dialyzed FBS, 46.1 µM
[12] = RPMI 5 mM glucose + 10% FBS, 0.000781 µM
[13] = RPMI 5 mM glucose + 10% FBS, 0.00234 µM
[14] = RPMI 5 mM glucose + 10% FBS, 0.00702 µM
[15] = RPMI 5 mM glucose + 10% FBS, 0.0211 µM
[16] = RPMI 5 mM glucose + 10% FBS, 0.0632 µM
[17] = RPMI 5 mM glucose + 10% FBS, 0.19 µM
[18] = RPMI 5 mM glucose + 10% FBS, 0.569 µM
[19] = RPMI 5 mM glucose + 10% FBS, 1.71 µM
[20] = RPMI 5 mM glucose + 10% FBS, 5.12 µM
[21] = RPMI 5 mM glucose + 10% FBS, 15.4 µM
[22] = RPMI 5 mM glucose + 10% FBS, 46.1 µM
[23] = RPMI 5 mM glucose + 10% dialyzed FBS, 0.000781 µM
[24] = RPMI 5 mM glucose + 10% dialyzed FBS, 0.00234 µM
[25] = RPMI 5 mM glucose + 10% dialyzed FBS, 0.00702 µM
[26] = RPMI 5 mM glucose + 10% dialyzed FBS, 0.0211 µM
[27] = RPMI 5 mM glucose + 10% dialyzed FBS, 0.0632 µM
[28] = RPMI 5 mM glucose + 10% dialyzed FBS, 0.19 µM
[29] = RPMI 5 mM glucose + 10% dialyzed FBS, 0.569 µM
[30] = RPMI 5 mM glucose + 10% dialyzed FBS, 1.71 µM
[31] = RPMI 5 mM glucose + 10% dialyzed FBS, 5.12 µM
[32] = RPMI 5 mM glucose + 10% dialyzed FBS, 15.4 µM
[33] = RPMI 5 mM glucose + 10% dialyzed FBS, 46.1 µM

Compound | cell viability [1] [%] | cell viability [2] [%] | cell viability [3] [%] | cell viability [4] [%] | cell viability [5] [%] | cell viability [6] [%] | cell viability [7] [%] | cell viability [8] [%] | cell viability [9] [%] | cell viability [10] [%] | cell viability [11] [%] | cell viability [12] [%] | cell viability [13] [%] | cell viability [14] [%] | cell viability [15] [%] | cell viability [16] [%] | cell viability [17] [%] | cell viability [18] [%] | cell viability [19] [%] | cell viability [20] [%] | cell viability [21] [%] | cell viability [22] [%] | cell viability [23] [%] | cell viability [24] [%] | cell viability [25] [%] | cell viability [26] [%] | cell viability [27] [%] | cell viability [28] [%] | cell viability [29] [%] | cell viability [30] [%] | cell viability [31] [%] | cell viability [32] [%] | cell viability [33] [%]
COc1ccc(-c2ccc3c(N4CCOC[C@@H]4C)nc(N4CCOC[C@@H]4C)nc3n2)cc1CO | 101 | 58.2 | 96.6 | 92.1 | 87.3 | 62.2 | 60.3 | 53.4 | 50.9 | 33 | 4.42 | 110 | 52 | 118 | 101 | 89.7 | 51 | 67.5 | 55.8 | 36.5 | 12.6 | 4.05 | 105 | 53 | 110 | 88.9 | 82.2 | 64.7 | 67.4 | 56.2 | 45.7 | 34.3 | 3.94
Cc1cnc(-c2cc(N3CCN(C(=O)CC[S+](C)(=O)[O-])CC3)ncc2Cl)c(C)c1 | 103 | 102 | 118 | 119 | 128 | 122 | 124 | 130 | 127 | 125 | 141 | 115 | 151 | 119 | 116 | 118 | 136 | 135 | 140 | 140 | 142 | 136 | 112 | 115 | 107 | 133 | 125 | 132 | 124 | 141 | 155 | 143 | 139
O=C(NC[C@H](O)CO)c1ccncc1Nc1ccc(I)cc1F | 94.4 | 104 | 38.1 | 118 | 106 | 105 | 88.3 | 83.4 | 85.7 | 85.4 | 64.4 | 94.4 | 97.6 | 19.3 | 101 | 108 | 89.2 | 85.7 | 80.1 | 68.3 | 64.6 | 43.6 | 97.2 | 108 | 35.1 | 99 | 99.8 | 85.3 | 84.2 | 70.3 | 72.7 | 56.3 | 54.7
C[C@]1(c2nc3c(C(N)=O)cccc3[nH]2)CCCN1 | 63.8 | 74.1 | 75.9 | 89.1 | 78.3 | 81.3 | 74.5 | 90.6 | 87.2 | 80.3 | 63 | 81 | 62.7 | 68 | 88.8 | 83 | 87.4 | 89.7 | 85 | 98 | 98.1 | 59.8 | 68.5 | 63.7 | 64.9 | 87.2 | 71.9 | 79 | 84.5 | 75.6 | 76.7 | 76.7 | 51.5
CN1CCN(c2ccc([N+](=O)[O-])c3no[n+]([O-])c23)CC1 | 93.2 | 89 | 87.3 | 94.7 | 81.1 | 95.2 | 97 | 85.9 | 88.7 | 82.2 | 52.4 | 84.6 | 103 | 91.4 | 101 | 105 | 106 | 87.4 | 101 | 110 | 98.4 | 69.1 | 85.9 | 97.3 | 93.4 | 89.3 | 85.2 | 99.4 | 99.1 | 93.3 | 92.4 | 76.1 | 46.1
NC/1=N/C2=C([NH]C=N2)C(=S)N1 | 110 | 57 | 106 | 115 | 117 | 114 | 108 | 117 | 113 | 110 | 24.2 | 114 | 81.5 | 117 | 105 | 119 | 114 | 102 | 103 | 102 | 108 | 16.1 | 95.1 | 81.6 | 103 | 118 | 113 | 103 | 81 | 37.7 | 29.6 | 33.5 | 9.21
Cc1cc2c(F)c(Oc3ncnn4cc(OC[C@@H](C)O)c(C)c34)ccc2[nH]1 | 107 | 108 | 101 | 102 | 106 | 104 | 88.7 | 83.2 | 70.5 | 38.6 | 26.6 | 117 | 117 | 141 | 124 | 110 | 99.4 | 100 | 85.3 | 77.6 | 39.7 | 26.2 | 87.5 | 92.6 | 103 | 102 | 92.9 | 89.3 | 92.4 | 79.3 | 70.3 | 26 | 13.7
